# How the values were obtained:
# NK cells [1] = assay: Daratumumab in PBMC culture: NK cell frequency and numbers; format: cell-based, human
# Protocol: Based on the expression levels of CD38 on NK and T cells, the effect of an anti-CD38 antibody, daratumumab (TAB-236, Creative Biolabs), on such cells was assessed. […] The effect of 10% complement on the cell cultures was also tested. Untreated cells and cells treated with 0.01, 0.1 or 1 μg/mL isotype control mAb (human IgG1k) (cat #403501, BioLegend) were used as controls. After 96 hours of culture, NK and T cell frequency and numbers were measured.
# T cells = assay: Daratumumab in PBMC culture: T cell frequency and numbers; format: cell-based, human; conditions: 0.01, 0.1 or 1 μg/mL, 96 hours
# Protocol: Based on the expression levels of CD38 on NK and T cells, the effect of an anti-CD38 antibody, daratumumab (TAB-236, Creative Biolabs), on such cells was assessed. PBMCs from a healthy donor were cultured for 96 hours in media containing 0.01, 0.1, or 1 μg/mL of daratumumab. The effect of 10% complement on the cell cultures was also tested. Untreated cells and cells treated with 0.01, 0.1 or 1 μg/mL isotype control mAb (human IgG1k) (cat #403501, BioLegend) were used as controls. After 96 hours of culture, NK and T cell frequency and numbers were measured.
# anti-BCMA CAR T cells [2] = assay: Daratumumab on anti-BCMA CAR T cell numbers, frequency and activation; format: cell-based, human
# Protocol: To assess whether daratumumab treatment affects CAR T cells with a disrupted β2M gene, anti-BCMA CAR T cells generated in Example 1 were treated with daratumumab with or without 10% complement. After a 72 hour culture period, anti-BCMA CAR T cell numbers and frequency were measured in a flow cytometry assay as described in Example 3 (FIGS. 12A-12B).
# To determine if higher concentrations of daratumumab (10 μg/mL) activates CAR T cells and causes subsequent proliferation or activation-induced cell death, anti-BCMA CAR T cells deficient in B2M were cultured with daratumumab at concentrations of 0.1, 1 or 10 μg/mL for 24 hours. Untreated cells or anti-BCMA CAR T cells deficient in B2M treated with IgG1k isotype control mAb were used as controls.
# NK cells [3] = assay: NK cell-mediated CAR T cell lysis after daratumumab pre-treatment of NK cells (DAPI cell-kill assay); format: cell-based, human
# Protocol: To determine if daratumumab blunts NK-cell mediated CAR T cell lysis, anti-BCMA CAR T cells were co-cultured with purified NK cells that were pre-treated for 60 hours with either daratumumab or isotype control mAb at concentrations of 0.01, 0.1, or 1 μg/mL (FIG. 13A). At the end of the 60 hour pre-treatment period, 50,000 efluor-labelled anti-BCMA CAR T cells were added to the plate containing 150,000 NK cells and Dara/isotype control, and incubated for an additional 24 hours. At the end of the 24-hour co-culture period, anti-BCMA CAR T cell lysis was measured in a cell-kill assay with DAPI.
# Specifically, the anti-BCMA CAR T cells were labeled with 5 μM efluor670 (Cat #65-0840-90; ThermoFisher Scientific), washed and incubated in co-cultures with the NK cells at a 3:1 (NK:T) ratio. The co-culture was incubated 24 hr. After incubation, wells were washed and media was replaced with 150 μL of 1× FACS buffer containing a 1:500 dilution of 5 mg/mL DAPI (Molecular Probes) and 12.5 μL of CountBright beads (C36950; ThermoFisher Scientific).
# To determine if 10 μg/mL daratumumab blunts NK-cell mediated CAR T cell lysis, anti-BCMA CAR T cells deficient in B2M were co-cultured with purified NK cells that were pre-treated for 60 hours with either daratumumab or isotype control mAb at concentrations of 0.1, 1 or 10 μg/mL. Briefly, NK cells were plated at 50,000 or 150,000 cells per well and treated with daratumumab or the isotype control at concentrations of 0, 0.1, 1 and 10 μg/mL. After 60 hours of treatment of NK cells with daratumumab, the anti-BCMA CAR T cells were labeled with 5 μM efluor670 (Cat #65-0840-90; ThermoFisher Scientific), washed and seeded at 50,000 cells per well in co-cultures with the daratumumab-treated NK cells to make 1:1 or 3:1 (NK:T) ratio. The co-culture was incubated for further 24 hr. […] The cells were analyzed for cell viability by flow cytometry (i.e., viable cells being negative for DAPI staining) Pre-treatment with daratumumab protected anti-BCMA CAR T cell from NK induced cell lysis in a dose-dependent manner (FIGS. 14B-14C). […]
# NK cells [4] = assay: High daratumumab concentrations in NK/CAR T co-culture: NK cell numbers; format: cell-based, human; conditions: 72 hours
# Protocol: (§1) Daratumumab is prescribed in the clinic at a dose of 16 mg/kg (225 μg/mL equivalent). To determine the effect of daratumumab at high concentrations on NK and CAR T cells, anti-BCMA CAR T cells deficient in B2M were co-cultured with purified NK cells that were pre-treated for 60 hours with either human IgGl^-k or daratumumab, each at concentrations of 0.01, 0.1, 1, 10, 100 or 300 μg/mL using methods as described in the previous examples. Flow cytometry was used to assess NK and CAR T cells numbers 72 hours after co-culturing with pre-treated NK cells using methods as described in the previous examples.
# anti-BCMA CAR T cells [5] = assay: High daratumumab concentrations in NK/CAR T co-culture: CAR T cell numbers; format: cell-based, human; conditions: up to 300 μg/mL; 72 hours
# Protocol: as §1
# MM.1S tumors = assay: Daratumumab plus anti-BCMA CAR-T cells in subcutaneous MM.1S xenograft model; format: in vivo, NOG mice; conditions: high dose 2.4×10^6 CAR+ T cells iv day 0; daratumumab 15 mg/kg IP twice weekly
# Protocol: The effect of combining daratumumab with anti-BCMA CAR-T cell treatment was tested in a subcutaneous MM.1S xenograft model in immunocompromised NOG mice (NOD.Cg-Prkdc^scidIl2rg^tm1Sug/JicTac). In brief, 5 to 8-week old female NOG mice were individually housed in ventilated microisolator cages and maintained under pathogen-free conditions. The animals each received a subcutaneous inoculation in the right flank of 5×10^6 MM.1S cells in 50% Matrigel. When the mean tumor volume reached 150 mm^3 (approximately 125 to 175 mm^3), the mice were randomized into groups with 5 mice per group. Tested groups included an untreated arm, daratumumab only treatment, anti-BCMA CAR-T cell only treatment (low dose or high dose), and anti-BCMA CAR-T cell (low dose or high dose) in combination with daratumumab. Anti-BCMA CAR-T cells were dosed by intravenous injection of 0.8×10^6 (low dose) or 2.4×10^6 (high dose) CAR^+ T cells at day 0. Daratumumab was dosed IP at 15 mg/kg, twice weekly, starting 2 days prior to anti-BCMA CAR-T cell dosing.
# Tumor volume and body weights were measured twice weekly and individual mice were euthanized when their tumor volume reached ≥2000 mm^3.
# multiple myeloma = conditions: third-line or fourth-line therapy; approximate; cited from earlier work
# [6] = human, in vivo; cited from earlier work
substance,measurement,setting,value
daratumumab: fully human IgGκ monoclonal antibody that targets CD38,reduction of NK cell numbers,"NK cells [1]; 1 μg/mL, 96 hours",approximately 75%
same,NK cell frequency and numbers,"NK cells [1]; 0.01, 0.1 or 1 μg/mL, 96 hours",dose-dependent decrease of NK cell frequency and numbers
same,reduction of NK cell numbers,"NK cells [1]; PBMCs from a different donor, 72 hours",~57%
same,complement dependence of NK cell reduction,NK cells [1]; addition of 10% complement,not complement dependent
same,T cell numbers or frequency,T cells,did not affect T cell numbers or frequency
same,activation of CAR T cells,anti-BCMA CAR T cells [2],did not induce activation of CAR T cells
same,B2M deficient CAR T cell numbers,"anti-BCMA CAR T cells [2]; 10 μg/mL, 24 hours",did not significantly reduce B2M deficient CAR T cells numbers
same,anti-BCMA CAR T cell numbers or frequency,"anti-BCMA CAR T cells [2]; 72 hour culture, with or without 10% complement",did not affect anti-BCMA CAR T cells numbers or frequency
same,protective effect against anti-BCMA CAR T cell lysis,"NK cells [3]; 1:1 NK:T ratio, 0.1 μg/mL, 60 hours pre-treatment",91%
same,protection from NK cell lysis,"NK cells [3]; 3:1 NK:CAR T ratio, 1 μg/mL, 60 hours pre-treatment",85%
same,anti-BCMA CAR T cell lysis by pre-treated NK cells,"NK cells [3]; NK cells pre-treated 60 hours at 0.01, 0.1 or 1 μg/mL, 3:1 NK:T, 24 hr co-culture",reduced anti-BCMA CAR T cell lysis in a dose-dependent manner
same,decrease in NK cells,NK cells [4]; 1 μg/mL,29%
same,further decrease in NK cells,NK cells [4]; 300 μg/mL,38%
same,BCMA CAR T cell numbers,anti-BCMA CAR T cells [5],unaffected by the high daratumumab concentrations
same,mean tumor volume at day 26,MM.1S tumors,1475 mm^3
same,historical ORR,multiple myeloma,~30%
same,hepatitis B reactivation,[6],1%
same,herpes zoster reactivation,[6],2%
